Laboratory results reported in patent publication US4707495A, “Peptic ulcer treatment method” (Ortho Pharmaceutical, priority 1985, dated 1987).

How the values were obtained:
[1] = tested on: submucosal lesions; assay: Cytoprotection: inhibition of submucosal gastric lesions induced by oral 50 percent ethanol; format: in vivo, Male Charles River rats; details: for Percent Inhibition of Submucosal Lesions, Oral: 2 percent aqueous ethanol vehicle; for Percent Inhibition of Submucosal Lesions, Topical: topical to shaved skin, 25 percent ethanolic water; for cytoprotection when applied topically (in words): topical, at the same unit dose as effective orally
Procedure: Male Charles River rats weighing about 200 g each were fasted overnight, but were allowed water ad libitum. Rats used for the topical administration of this invention were shaved on their dorsal sides one day prior to being used as host mammals.
Compositions containing the active ingredient were prepared for oral administration by dissolving a prostaglandin in a 2 percent aqueous ethanolic solution that was administered in a dose volume of 0.2 milliliters per kilogram (ml/kg) of body weight at the unit dosages shown in Table 1 hereinafter. […] A fixed concentration for each dose was applied to the skin in a volume of 0.2 ml per rat.
Gastric lesions were induced by oral administration of 1.0 ml of a 50 percent ethanolic water solution that was administered one hour after administration of each of the active ingredients. The rats were sacrificed by asphyxiation one hour after gastric lesion induction using carbon dioxide. The rat stomachs were then removed, inflated with water, opened along the greater curvature, and were laid out on a flat surface. The presence of mucosal bleeding was noted, the mucosal layers were wiped, and the presence or absence of hemorrhagic sites was recorded.
The incidences of lesions compared to controls were statistically analyzed by either the method of Chi-square using Yate's correction or Fisher's Exact Probability Test.

[2] = tested on: gastric acid secretion; assay: Inhibition of gastric acid secretion (pylorus ligation); format: in vivo, Male Charles River CD rats; details: for Percent Inhibition of Acid, Intraduodenal / Percent Inhibition of Acid, Topical: 4 h after pylorus ligation; for Percent Inhibition of Acid, Intraduodenal: 2 percent ethanolic water; for Percent Inhibition of Acid, Topical: topical to shaved skin, 25 percent ethanolic water
Procedure: Male Charles River CD rats weighing about 180 g each were shaved on their dorsal sides and derpived of food for a time period of 18 hours prior to use. Water was permitted ad libitim during that time, but was removed during the times at which the rats were studied as host mammals.
Compositions containing the active ingredient were administered intraduodenally at 1 ml/kg or were applied to directly contact the shaved skin at 0.2 ml/animal at the time the pylorus of each animal was ligated.
The animals were sacrificed by asphyxiation four hours after pylorus ligation using carbon dioxide. The gastric contents were collected in graduated centrifuge tubes that were centrifuged. The centrifugally separated supernatents were then analyzed for volume and acidity. Acid concentration (secretion) was determined by electrometric titration of a 1 ml aliquot of the recovered gastric juice against 0.1N NaOH to a pH value of 7.4.
Treated groups were compared to the control and statistical differences were declared by the method of least significant differences.
(treatment-control)/control×100%

[3] = tested on: gastrointestinal mucosa; details: in vivo; cited from earlier work
[4] = tested on: gastric acid secretion; details: given orally to rats, at any dose; cited from earlier work
[5] = tested on: indomethacin-induced gastric lesions; details: oral administration; cited from earlier work
[6] = tested on: gastric acid secretion; details: laboratory animals and man; cited from earlier work
[7] = 5 μg/kg (estimate based on 200 g rat)
[8] = 25 μg/kg, lesions by 50 percent ethanol 1 h after agent
[9] = 25 μg/kg (estimate based on 200 g rat)

Compound: CCCCC(C)(O)C/C=C/[C@H]1[C@H](O)CC(=O)[C@@H]1CCCCCCC(=O)OC (mixture of isomers) [Misoprostol, (±)(11α,13E)-11,16-dihydroxy-16-methyl-9-oxo-prost-13-en-1-oic acid methyl ester]
- Percent Inhibition of Submucosal Lesions, Oral ([1]; 100 μg/kg): 87%
- Percent Inhibition of Submucosal Lesions, Topical ([1]; 100 μg/kg (estimate based on 200 g rat)): 75%
- cytoprotection when applied topically (in words) [1]: effective at the same oral dose when applied externally
- Percent Inhibition of Acid, Intraduodenal ([2]; 8.0 mg/kg): 38%
- Percent Inhibition of Acid, Topical ([2]; 8.0 mg/kg): 43%

Compound: COC(=O)CCC=C=CC[C@H]1C(=O)C[C@@H](O)[C@@H]1/C=C/C(O)COc1ccccc1 (relative stereo) [Enprostil, 7-[3-hydroxy-2-(3-hydroxy-4-phenoxy-1-butenyl)-5-oxocyclopentyl]-4,5-heptad ienoic acid methyl ester]
- Percent Inhibition of Submucosal Lesions, Oral ([1]; 5 μg/kg): 100%
- Percent Inhibition of Submucosal Lesions, Topical [1, 7]: 100%
- cytoprotection when applied topically (in words) [1]: effective at the same oral dose when applied externally
- Percent Inhibition of Acid, Intraduodenal ([2]; 1.0 mg/kg): 71%
- Percent Inhibition of Acid, Topical ([2]; 1.0 mg/kg): 32%

Compound: CCCCC(C)(C)C(O)/C=C/[C@H]1[C@H](C)CC(=O)[C@@H]1C/C=C\CCCC(=O)O (relative stereo) [Trimoprostil, (±)9-oxo-11α-methyl-15-hydroxy-16,16-dimethyl-5-cis,13-trans-prost adienoic acid]
- Percent Inhibition of Acid, Intraduodenal ([2]; 8.0 mg/kg): 38%
- Percent Inhibition of Acid, Topical ([2]; 8.0 mg/kg): 9%
- inhibition of gastric acid when applied topically (in words) ([2]; topical, at the unit dosage effective intraduodenally): ineffective at significantly inhibiting production of gastric acid, when applied topically

Compound: C[N+]1(C)[C@@H]2C[C@@H](OC(=O)[C@H](CO)c3ccccc3)C[C@H]1[C@@H]1O[C@@H]12 (stereo in doubt) [methscopolamine bromide]
- cytoprotective activity [3]: not cytoprotective in the models employed

Compound: CCCCC[C@@](C)(O)/C=C/[C@@H]1[C@@H](C/C=C\CCCC(=O)O)[C@H](O)C[C@H]1O [15(R)-15 methyl PGF2β]
- cytoprotective activity [3]: cytoprotective
- antisecretory activity [4]: not antisecretory at any dose when given orally to rats

Compound: CCCCC(C)(C)[C@H](O)/C=C/[C@H]1C=CC(=O)[C@@H]1C/C=C\CCCC(=O)O [16,16-dimethyl PGA2]
- cytoprotective activity [3]: cytoprotective
- antisecretory activity [4]: not antisecretory at any dose when given orally to rats

Compound: CCCCC[C@H](O)/C=C/[C@H]1C=CC(=O)[C@@H]1CCCCCCC(=O)O [PGA1]
- protection from indomethacin-induced gastric lesions [5]: does not protect rats from indomethacin-induced gastric lesions

Compound: CCCCC[C@H](O)/C=C/[C@H]1C(=O)C[C@H](O)[C@@H]1C/C=C\CCCC(=O)O [PGD2]
- protection from indomethacin-induced gastric lesions [5]: does not protect rats from indomethacin-induced gastric lesions

Compound: CCCCC[C@H](O)/C=C/[C@H]1[C@H](O)CC(=O)[C@@H]1CCCCCCC(=O)O [PGE1, 9-oxo-11 alpha,15-dihydroxy-13-trans-prostenoic acid]
- gastric antisecretory activity [6]: have gastric antisecretory activity in both laboratory animals and man
- Percent Inhibition of Submucosal Lesions, Oral [1, 8]: 60%
- Percent Inhibition of Submucosal Lesions, Topical [1, 9]: 10%
- cytoprotection when applied topically (in words) [1]: ineffective at providing cytoprotection when applied topically

Compound: CCCCC[C@H](O)/C=C/[C@H]1[C@H](O)CC(=O)[C@@H]1C/C=C\CCCC(=O)O [PGE2, 9-oxo-11α,15-dihydroxy-5-cis,13-transprostadienoic acid]
- gastric antisecretory activity [6]: have gastric antisecretory activity in both laboratory animals and man
- Percent Inhibition of Submucosal Lesions, Oral [1, 8]: 40%
- Percent Inhibition of Submucosal Lesions, Topical [1, 9]: 20%
- cytoprotection when applied topically (in words) [1]: ineffective at providing cytoprotection when applied topically

Compound: CCCCC(C)(O)C/C=C/[C@H]1[C@H](O)CC(=O)[C@@H]1CCCCCCCO (stereo partly drawn) [Rioprostil, (11α,13E)-1,11,16-trihydroxy-16-methyl-prost-13-en-9-one]
- Percent Inhibition of Submucosal Lesions, Oral [1, 8]: 87%
- Percent Inhibition of Submucosal Lesions, Topical [1, 9]: 75%
- cytoprotection when applied topically (in words) [1]: effective at the same oral dose when applied externally
- Percent Inhibition of Acid, Intraduodenal ([2]; 8.0 mg/kg): 35%
- Percent Inhibition of Acid, Topical ([2]; 8.0 mg/kg): 37%

Compound: CN/C(=N/CCSCc1nc[nH]c1C)NC#N [cimetidine]
- cytoprotective activity [3]: not cytoprotective in the models employed

Compound: CCCCC(C)(C)[C@H](O)/C=C/[C@H]1[C@H](O)CC(=O)[C@@H]1C/C=C\CCCC(=O)O [dmPGE2, (5Z,11α,13E,15R)-11,15-dihydroxy-16,16-dimethyl-9-oxo-prosta-5,13-1-o ic acid acid]
- Percent Inhibition of Submucosal Lesions, Oral ([1]; 5 μg/kg): 100%
- Percent Inhibition of Submucosal Lesions, Topical [1, 7]: 100%
- cytoprotection when applied topically (in words) [1]: effective at the same oral dose when applied externally
- Percent Inhibition of Acid, Intraduodenal ([2]; 1.0 mg/kg): 29%
- Percent Inhibition of Acid, Topical ([2]; 1.0 mg/kg): 26%
